This is an account of results in patent US20040043959A1, “Combination therapies for treating methylthioadenosine phosphorylase deficient cells” (priority 2002, published 2004).

The assay concerns the target T1, Human MTAP (Homo sapiens, UniProt Q13126).
T1 construct: six-histidine tag (His6) (N); made in house; host or cells: E. coli BL21 DE3
T1 sequence (Q13126 1-283): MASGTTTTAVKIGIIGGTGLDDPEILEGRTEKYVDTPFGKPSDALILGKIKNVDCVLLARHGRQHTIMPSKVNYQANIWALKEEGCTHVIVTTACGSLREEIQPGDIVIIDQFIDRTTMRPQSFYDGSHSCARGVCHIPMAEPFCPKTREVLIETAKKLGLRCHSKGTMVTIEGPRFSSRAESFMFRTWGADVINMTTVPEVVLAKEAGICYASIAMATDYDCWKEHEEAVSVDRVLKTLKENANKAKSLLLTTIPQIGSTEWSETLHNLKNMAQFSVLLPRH
As to the kind of experiment: MTAP substrate assay, coupled spectrophotometric (adenine, xanthine oxidase). Particulars: 2 nM MTAP; for activity at 50 µM: 10 min, compound 50 uM, relative to MTA at 50 uM, read-out: MT-A—50: initial velocity as a percentage of the initial velocity with MTA as substrate; for MT-A—10: initial velocity as a percentage of the initial velocity with MTA as substrate: compound 10 uM, relative to MTA at 10 uM. Format: biochemical. Here is the method: An enzymatic assay to determine the activity of MTAP against a given substrate was performed. Human MTAP containing an N-terminal six-histidine tag was expressed in E. coli BL21 DE3 cells. The protein was purified to homogeneity by Ni2+ affinity chromatography. Enzymatic activity was measured using a coupled spectrophotometric assay designed to monitor the reaction product adenine (Savarese, T. M., Crabtree, G. W., and Parks, R. E. Jr., (1980) Biochem. Pharmacol. 30, 189-199). Various concentrations of the indicated 5′-deoxymethylthio adenosine (MTA) or substrate were incubated in assay buffer (40 mM potassium phosphate buffer, 1 mM, and DTT 0.8 units/ml xanthine oxidase coupling enzyme) for 5 minutes at 37° C. The reaction was initiated by the addition of MTAP. The exact concentration of enzyme used varied for each substrate tested and ranged from 2 nM to 500 nM. Activity as a function of enzyme concentration was determined for each substrate tested to ensure that the appropriate enzyme concentration was used. Activity was detected by continuous monitoring of absorbance at 305 nm for 10 minutes (ΔE=15,500 M^−1).
Library compounds (10 and 50 uM) were tested using the assay described above with 2 nM MTAP enzyme. The resultant initial velocities are reported as a percentage of the initial velocity observed when MTA is the substrate. MTA controls, 10 and 50 uM concentrations, were run on each plate alongside the library compounds.

As for `CCOC(=O)c1c[nH]c(SC[C@H]2O[C@@H](n3cnc4c(N)ncnc43)[C@H](O)[C@@H]2O)n1` [2(G)(132), Ethyl 2-({[(2S, 3S, 4R, 5R)-5-(6-amino-9H-purin-9-yl)-3,4-dihydroxytetra-hydrofuran-2-yl]methyl}thio)-1H-imidazole-4-carboxylate], the activity at 50 µM stood at 1.5% and the “MT-A—10: initial velocity as a percentage of the initial velocity with MTA as substrate” value was 0%.
As to `CC(C)c1ccccc1SC[C@H]1O[C@@H](n2cnc3c(N)ncnc32)[C@H](O)[C@@H]1O` [2(G)(146), (2R, 3R, 4S, 5S)-2-(6-amino-9H-purin-9-yl)-5-{[(2-isopropylphenyl)-thio]methyl}tetrahydro-furan-3,4-diol], the activity at 50 µM was 2% and the “MT-A—10: initial velocity as a percentage of the initial velocity with MTA as substrate” value stood at 28%.
Take `Nc1ncnc2c1ncn2[C@@H]1O[C@H](CSc2cccc(Br)c2)[C@@H](O)[C@H]1O` [2(G)(29), (2R, 3R, 4S, 5S)-2-(6-amino-9H-purin-9-yl)-5-{[(3-bromophenyl)-thio]methyl}tetrahydro-furan-3,4-diol]: the activity at 50 µM is 19% and the “MT-A—10: initial velocity as a percentage of the initial velocity with MTA as substrate” value is on record as 21%.
Take `Nc1ncnc2c1ncn2[C@@H]1O[C@H](CSc2ccc(C(F)(F)F)cc2[N+](=O)[O-])[C@@H](O)[C@H]1O` [2(G)(103), (2R, 3R, 4S, 5S)-2-(6-amino-9H-purin-9-yl)-5-({[2-nitro-4-(trifluoromethyl)phenyl]thio}methyl)tetrahydro-furan-3,4-diol]: the activity at 50 µM was 4% and the “MT-A—10: initial velocity as a percentage of the initial velocity with MTA as substrate” value is recorded as 3%.
Take `CCCCCCCCCSC[C@H]1O[C@@H](n2cnc3c(N)ncnc32)[C@H](O)[C@@H]1O` [2(G)(121), (2R, 3R, 4S, 5S)-2-(6-amino-9H-purin-9-yl)-5-[(nonylthio)methyl]tetra-hydrofuran-3,4-diol]: the activity at 50 µM amounted to 54.5% and the “MT-A—10: initial velocity as a percentage of the initial velocity with MTA as substrate” value was found to be 64.5%.
Consider `Cn1ccnc1SC[C@H]1O[C@@H](n2cnc3c(N)ncnc32)[C@H](O)[C@@H]1O` [2(G)(120), (2R, 3R, 4S, 5S)-2-(6-amino-9H-purin-9-yl)-5-{[(1-methyl-1H-imidazol-2-yl)thio)methyl}tetra-hydrofuran-3,4-diol], for which the activity at 50 µM turned out to be 3% and the “MT-A—10: initial velocity as a percentage of the initial velocity with MTA as substrate” value was 1%.
As for `Cc1cccc(C)c1SC[C@H]1O[C@@H](n2cnc3c(N)ncnc32)[C@H](O)[C@@H]1O` [2(G)(22), (2R, 3R, 4S, 5S)-2-(6-amino-9H-purin-9-yl)-5-{[(2,6-dimethylphenyl)-thio]methyl}tetrahydro-furan-3,4-diol], the activity at 50 µM is 15% and the “MT-A—10: initial velocity as a percentage of the initial velocity with MTA as substrate” value stood at 3%.
In the case of `CCOC(=O)CSC[C@H]1O[C@@H](n2cnc3c(N)ncnc32)[C@H](O)[C@@H]1O` [2(G)(88), ethyl ({[(2S, 3S, 4R, 5R)-5-(6-amino-9H-purin-9-yl)-3,4-dihydroxytetrahydro-furan-2-yl]methyl}thio)acetate], the activity at 50 µM is 33% and the “MT-A—10: initial velocity as a percentage of the initial velocity with MTA as substrate” value is given as 25%.
For `Nc1ncnc2c1ncn2[C@@H]1O[C@H](CSCc2csc3ccccc23)[C@@H](O)[C@H]1O` [2(G)(93), (2R, 3R, 4S, 5S)-2-(6-amino-9H-purin-9-yl)-5-{[(1-benzothien-3-ylmethyl)thio]methyl}tetrahydrofuran-3,4-diol], in that order: 17% and 18%.
Turning to `COc1cccc(-c2nnc(SC[C@H]3O[C@@H](n4cnc5c(N)ncnc54)[C@H](O)[C@@H]3O)n2C)c1` [2(G)(111), (2R, 3R, 4S, 5S)-2-(6-amino-9H-purin-9-yl)-5-({[5-(3-methoxyphenyl)-4-methyl-4H-1,2,4-triazol-3-yl]thio}-methyl)tetrahydrofuran-3,4-diol], the activity at 50 µM was found to be 4% and the “MT-A—10: initial velocity as a percentage of the initial velocity with MTA as substrate” value was 8%.
For `Nc1ncnc2c1ncn2[C@@H]1O[C@H](CSc2ccccc2CO)[C@@H](O)[C@H]1O` [2(G)(157), (2R, 3R, 4S, 5S)-2-(6-amino-9H-purin-9-yl)-5-({[2-(hydroxymethyl)-phenyl]thio}methyl)tetra-hydrofuran-3,4-diol], in that order: 15.5% and 32.5%.
Consider `CCOC(=O)C(C)SC[C@H]1O[C@@H](n2cnc3c(N)ncnc32)[C@H](O)[C@@H]1O` (stereo partly drawn) [2(G)(140), Ethyl 2-({[(2S, 3S, 4R, 5R)-5-(6-amino-9H-purin-9-yl)-3,4-dihydroxytetra-hydrofuran-2-yl]methyl}-thio)-propanoate], for which the activity at 50 µM came to 7.5% and the “MT-A—10: initial velocity as a percentage of the initial velocity with MTA as substrate” value came to 3%.
For `Nc1nc(SC[C@H]2O[C@@H](n3cnc4c(N)ncnc43)[C@H](O)[C@@H]2O)c2[nH]cnc2n1` [2(G)(3), (2R, 3R, 4S, 5S)-2-(6-amino-9H-purin-9-yl)-5-{[(2-amino-7H-purin-6-yl)thio]methyl}tetrahydro-furan-3,4-diol], in that order: 45% and 46%.
In the same order, the values of `COC(=O)/C=C/c1ccc(SC[C@H]2O[C@@H](n3cnc4c(N)ncnc43)[C@H](O)[C@@H]2O)cc1` [2(G)(110), methyl (2E)-3-[4-({[(2S, 3S, 4R, 5R)-5-(6-amino-9H-purin-9-yl)-dihydroxy-tetrahydrofuran-2-yl]-methyl}thio)phenyl]-acrylate] are 9% and 15%.
For `CCCCNCCSC[C@H]1O[C@@H](n2cnc3c(N)ncnc32)[C@H](O)[C@@H]1O` [2(G)(136), (2R, 3R, 4S, 5S)-2-(6-amino-9H-purin-9-yl)-5-({[2-(butylamino)-ethyl]thio}methyl)-tetrahydrofuran-3,4-diol], the activity at 50 µM was 37.5% and the “MT-A—10: initial velocity as a percentage of the initial velocity with MTA as substrate” value is 18%.
Regarding `Nc1ncnc2c1ncn2[C@@H]1O[C@H](CSc2nc3ccc(Cl)cc3o2)[C@@H](O)[C@H]1O` [2(G)(153), (2R, 3R, 4S, 5S)-2-(6-amino-9H-purin-9-yl)-5-{[(6-chloro-1,3-benz-oxazol-2-yl)thio]methyl}tetrahydrofuran-3,4-diol], the activity at 50 µM was determined as 22.5% and the “MT-A—10: initial velocity as a percentage of the initial velocity with MTA as substrate” value came to 10%.
In the case of `Nc1ncnc2c1ncn2[C@@H]1O[C@H](CSc2ccc(Br)cc2)[C@@H](O)[C@H]1O` [2(G)(17), (2R, 3R, 4S, 5S)-2-(6-amino-9H-purin-9-yl)-5-{[(4-bromophenyl)-thio]methyl}tetrahydro-furan-3,4-diol], the activity at 50 µM stood at 17% and the “MT-A—10: initial velocity as a percentage of the initial velocity with MTA as substrate” value was 21%.
On to `CSc1nsc(SC[C@H]2O[C@@H](n3cnc4c(N)ncnc43)[C@H](O)[C@@H]2O)n1` [2(G)(152), (2R, 3R, 4S, 5S)-2-(6-amino-9H-purin-9-yl)-5-({[3-(methylthio)-1,2,4-thiodiazol-5-yl)-thio}methyl)tetrahydro-furan-3,4-diol], for which the activity at 50 µM amounted to 17% and the “MT-A—10: initial velocity as a percentage of the initial velocity with MTA as substrate” value is recorded as 19.5%.
In the same order, the values of `CCCCCCSC[C@H]1O[C@@H](n2cnc3c(N)ncnc32)[C@H](O)[C@@H]1O` [2(G)(126), (2R, 3R, 4S, 5S)-2-(6-amino-9H-purin-9-yl)-5-[(hexylthio)methyl]tetra-hydrofuran-3,4-diol] are 67.5% and 72%.
`CCCc1cc(O)nc(SC[C@H]2O[C@@H](n3cnc4c(N)ncnc43)[C@H](O)[C@@H]2O)n1` [2(G)(162), (2R, 3R, 4S, 5S)-2-(6-amino-9H-purin-9-yl)-5-{[(4-hydroxy-6-propylpyrimidin-2-yl)-thio]methyl}tetrahydro-furan-3,4-diol]: the activity at 50 µM was 39.5% and the “MT-A—10: initial velocity as a percentage of the initial velocity with MTA as substrate” value came to 29%.
With `CCCSc1ccc2[nH]c(SC[C@H]3O[C@@H](n4cnc5c(N)ncnc54)[C@H](O)[C@@H]3O)nc2c1` [2(G)(7), (2R, 3R, 4S, 5S)-2-(6-amino-9H-purin-9-yl)-5-({[5-(propylthio)-1H-benzimidazol-2-yl]thio}methyl)tetrahydro-furan-3,4-diol], the activity at 50 µM was determined as 0% and the “MT-A—10: initial velocity as a percentage of the initial velocity with MTA as substrate” value came out at 3%.
